{"source": "patent US20260027175A1", "about": "“COMPOSITIONS AND METHODS FOR TREATING A COGNITIVE DEFICIT” (priority 2022, published 2026)", "key": {"Phospho-Tau in neurons": {"system": "Phospho-Tau in neurons", "experiment": "Okadaic acid induced Tau hyper-phosphorylation in primary cortical neurons (Phospho-Tau/MAP2 immunofluorescence)", "type": "cell-based, rat", "description": "The potential efficacy of the test compound (SAAC) against Alzheimer's disease was evaluated using an in vitro model in which Tau hyper-phosphorylation Is Induced by pharmacological treatment.\nThe test compound was tested in culture medium at […], and 10%. Positive control of reversion of hyperphosphorylation was […] at 3 mM.\nPrimary cortical cultures from E 19 rat embryos.\nPhospho-Tau intensity in neurons and percentage of neurons with hyperphosphorylated Tau.\nCortical neurons from E 19 rat embryos were harvested and plated in 96 well plates. After 9 days in vitro, cells were treated with LiCI at 3 mM for 24 hours as a positive neuroprotective control or the test compound (SAAC) at 7 different concentrations. Another plate was pre-treated with the test compound (SAAC) at 7 different concentrations for 4 hours.\nAt the end of treatment durations, cells were treated with okadaic acid (OKA) for 3 hours. The cells were then fixed and processed for immunofluorescence analysis of Phospho-Tau (P-Tau) in neurons (Phospho-Tau labelling and neuronal labelling with MAP2 antibody).\nAfter 9 days in vitro, neurons were treated with LiCI at 3 mM for 24 hours as a positive neuroprotective control (FIG. 5) or the test compound (SAAC) at 7 different concentrations (FIG. 7 & FIG. 8). At the end of treatment duration, cells were treated with okadaic acid (OKA) for 3 hours. After Phospho-Tau and MAP2 labelling, the signals were acquired and the mean intensity of Phospho-Tau staining in the neurons as well as the percentage of neurons with a high Phospho-Tau level was assessed."}, "NF-κβ p65 subunit": {"system": "NF-κβ p65 subunit", "experiment": "Quantification of NF-KB p65 unit (ActivELISA) in hippocampus of ICV-OKA rats", "type": "in vivo, Wistar rats", "conditions": "ICV-OKA administered rats", "description": "(§1) Intracerebroventricular injection of okadaic acid was performed according to the procedure of Kamat et al. (2010). Rats were anesthetized with thiopentone (Neon Laboratories, India, 45 mg/kg, i.p.). The scalp was shaved, cleaned, and cut to expose the skull. The head was positioned in a stereotaxic frame and a midline sagittal incision was made in the scalp. Burr holes were drilled in the skull on both sides over the lateral ventricles by using the following coordinates: 0.8 mm posterior to bregma; 1.5 mm lateral to sagittal suture and 3.6 mm beneath the surface of the brain (Paxinos et al., 1980). Okadaic acid (200 ng) was injected bilaterally making the total dose of 100 ng in each ventricle. […]\n(§2) The experimental design is illustrated in FIG. 1. […] Memory impairment was assessed by Morris Water Maze on days 15th, 21st, 28th. […]\nThe NF-KB/p65 ActivELISA kit (Imgenex, USA) was used to measure NF-KB-free p65 in the nuclear fraction of different brain regions. […] The NF-KB ActivELISA is a sandwich ELISA in which free p65 was captured by anti-p65 antibody-coated plates and the amount of bound p65 was detected by adding a second anti-p65 antibody followed by alkaline phosphatase conjugated secondary antibody using colorimetric detection in an ELISA plate reader at 405 nm. The results were expressed as ng/mg of protein."}, "ICV-OKA rats": {"system": "ICV-OKA rats", "experiment": "Cognitive performance in Morris water maze task, ICV-OKA rats", "type": "in vivo, Wistar rats", "conditions": "ICV injection 100 ng each ventricle, 15th day", "description": "Adult male Wistar rats (200-230 g, 2 months old) were used.\nNuclear factor kappa-light-chain-enhancer of activated B cells (NF-KB) and BDNF ELISA kits were procured from Imegenex, San Diego, USA and Millipore, USA respectively. All other chemicals used for biochemical estimations were of analytical grade. SAAC was dissolved in double distilled water (DDW) while okadaic acid was dissolved in artificial cerebrospinal fluid (aCSF) (2.9 mM KCl, 147 mM NaCl, 1.7 mM CaCl2, 1.6 mM MgCl2, and 2.2 mM D-glucose).\nas §1, with “1980).” for “1980). Okadaic acid (200 ng) was injected bilaterally making the total dose of 100 ng in each ventricle.”\nas §2\nThe acquisition and retention of memory was evaluated by using Morris water maze (Morris et al., 1982; Tuzcu and Baydas, 2006). […]"}, "BDNF": {"system": "BDNF", "experiment": "Quantification of brain derived neurotrophic factor (BDNF) in hippocampus of ICV-OKA rats", "type": "in vivo, Wistar rats", "conditions": "ICV-OKA rats compared to sham group", "description": "Intracerebroventricular injection of okadaic acid was performed according to the procedure of Kamat et al. (2010). Rats were anesthetized with thiopentone (Neon Laboratories, India, 45 mg/kg, i.p.). The scalp was shaved, cleaned, and cut to expose the skull. The head was positioned in a stereotaxic frame and a midline sagittal incision was made in the scalp. Burr holes were drilled in the skull on both sides over the lateral ventricles by using the following coordinates: 0.8 mm posterior to bregma; 1.5 mm lateral to sagittal suture and 3.6 mm beneath the surface of the brain (Paxinos et al., 1980). Okadaic acid (200 ng) was injected bilaterally making the total dose of 100 ng in each ventricle. The concentration of okadaic acid in aCSF was adjusted so as to deliver 4 μl of the solution. Sham animals received ICV injection of the same volume of aCSF. The skin was sutured after injection followed by daily application of antiseptic powder (Neosporin). Postoperatively, the rats were fed with oral glucose and normal pellet diet for 4 days, followed by normal pellet diet alone.\nas §2\nThe quantification of BDNF was done with the help and instructions provided by Millipore, USA quantikine rat BDNF immunoassay kit."}, "c-Jun (substrate of JNK)": {"system": "c-Jun (substrate of JNK)", "experiment": "Phospho c-Jun immunofluorescence, high content imaging", "type": "cell-based", "conditions": "reference treatment: 1 μM anisomycin 10 μg/mL, 30 min", "description": "SACC was received as an aqueous stock solution. The different solutions were created by performing cascade dilutions in the culture medium.\nCells were seeded at 12 10^3 cells/well in 96 well plates and cultured for 24 h. Subsequently, cells were exposed to the different tested conditions (reference treatment: 1 μM anisomycin 10 μg/mL, 30 min). At the end of the treatment, the cells were processed for immunofluorescence with a specific antibody against the phosphorylated form of c-Jun. The fluorescent immune-staining was subsequently imaged by high content imaging. Single cell analysis of the phospho c-Jun immune-staining was performed.\nThe pharmacological modulators that decreased the cytotoxic effects of 1% SACC did it on the 1% were maximally effective at 50 h treatment. Therefore, the effect of SACC was studied after 50 h treatment with 0.1%; 0.3% and 1% SACC on phosphorylation level of the c-Jun (substrate of JNK)."}}, "data": [{"smiles": "C=C1[C@@H](O)[C@@H]2O[C@]3(CC[C@H](/C=C/[C@@H](C)[C@@H]4CC(C)=C[C@@]5(O[C@H](C[C@@](C)(O)C(=O)O)CC[C@H]5O)O4)O3)CC[C@H]2O[C@@H]1[C@@H](O)C[C@H](C)[C@H]1O[C@@]2(CCCCO2)CC[C@H]1C", "note": "[okadaic acid]", "values": [{"measurement": "increase in the percentage of neurons with high Phospho-Tau levels", "setting": "Phospho-Tau in neurons; 10 nM okadaic acid, 3 hours", "value": "~2", "unit": "fold"}, {"measurement": "phosphorylation of Tau", "setting": "Phospho-Tau in neurons; 10 nM okadaic acid, 4 h treatment experiment", "value": "not able to elicit any increase"}, {"measurement": "increase in the percentage of neurons with high Phospho-Tau levels", "setting": "Phospho-Tau in neurons; 100 nM okadaic acid, 3 hours", "value": "~3", "unit": "fold"}, {"measurement": "phosphorylation of the Tau protein", "setting": "Phospho-Tau in neurons; okadaic acid 10 nM and 100 nM, 3 hours", "value": "increased the phosphorylation of the Tau protein in a dose dependent way"}, {"measurement": "amount of phosphorylated tau in the axons and dendrites of the neurons", "setting": "Phospho-Tau in neurons; okadaic acid treatment alone", "value": "greatly increased"}, {"measurement": "elevation of NF-κβ p65 subunit in hippocampus", "setting": "NF-κβ p65 subunit", "value": 105, "unit": "%"}, {"measurement": "lower ability to find the platform and learn its location", "setting": "ICV-OKA rats", "value": 1.5, "unit": "fold"}, {"measurement": "decrease in brain derived neurotrophic factors", "setting": "BDNF", "value": 40, "unit": "%"}]}, {"smiles": "COc1ccc(C[C@H]2NC[C@H](O)[C@H]2OC(C)=O)cc1", "note": "[Aniosomycin, anisomycin]", "values": [{"measurement": "c-Jun phosphorylation", "setting": "c-Jun (substrate of JNK)", "value": "induced c-Jun phosphorylation in the total population of treated cells"}]}]}
